# Results as given in patent US20260118345A1, “METHOD OF EVALUATING INTERCELLULAR INTERACTIONS IN NEUROINFLAMMATION” (FUJIFILM Corporation, priority 2023, published 2026).
# Test system: three-cell-type co-culture of neurons, astrocytes, and microglia
# Experiment: Neural activity by calcium imaging (BPM), two-dimensional three-cell-type co-culture of neurons, astrocytes and microglia
# Assay type: cell-based, human
# Conditions: 24 hours after stimulation (TNF-α 7.5 ng/mL or LPS 100 ng/mL)
# Protocol: Matrigel basement membrane matrix (Corning, 356234) diluted 120-fold with DMEM/F12 (Life technologies, 11320-033) was added to a 96-well plate at 65 μL/well and allowed to stand at 4° C. After 24 hours, the culture medium was replaced with a progenitor cell culture medium and used. Astrocyte precursor cells (XCell Science, XCS-AP-001-1V) were seeded in a 96-well plate at a density of 6×10^4 cells/well, cultured under the conditions of 37° C. and 5% CO2, after culture medium was replaced with the differentiation induction culture medium, further cultured for 5 days to differentiate into astrocytes. […] After centrifugation, the supernatant was removed, the cells were suspended in 1 mL of the co-culture medium, and the number of cells was counted. […] After centrifugation, the supernatant was removed, the cells were suspended in 1 mL of the co-culture medium, and the number of cells was counted. […] In addition, at 24 hours after the stimulation with LPS or TNF-α, the neural activity was evaluated by calcium imaging. […] After incubating for 1 hour under conditions of 37° C. and 5% CO2, the solution was replaced with a warmed (37° C.) recording solution, and the fluorescence was measured for 10 minutes with FDSS (registered trademark)/μcell (Hamamatsu Photonics K. K., C13299). […]
substance,measurement,value
lipopolysaccharide [LPS],BPM (the number of peaks of calcium oscillation per minute) as compared with the control,increase
